Results on eight cell lines are retold here after the supplement of paper PMC10307832.

Assay in all cases: relative viability (nuclei count vs DMSO), 5 days (fraction); higher = more cells survive
Compound in assay [1]: CN[C@@H]1C[C@H]2O[C@@](C)([C@@H]1OC)n1c3ccccc3c3c4c(c5c6ccccc6n2c5c31)C(=O)NC4 [Staurosporine] + C[C@]1(O)C[C@@H](c2nc(-c3ccc4ccc(-c5ccccc5)nc4c3)c3c(N)nccn32)C1 [Linsitinib] (partner 1 µM)
Summed up:
(§1)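 Medians of duplicate plates are given as relative viability. That measure is the nuclei count in treated wells divided by the count in vehicle wells. Counts were taken on 4× images of lung cancer cell lines in 1536-well plates, 5 days after pin-tool dosing the day after seeding with one drug alone or a fixed anchor-drug dose plus five library-drug doses (not always all listed) in √10 steps.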

Compound in assay [2]: O=c1[nH]cc(F)c(=O)[nH]1 [5-Fluorouracil] + CCNC(=O)c1noc(-c2cc(C(C)C)c(O)cc2O)c1-c1ccc(CN2CCOCC2)cc1 [Luminespib] (partner 0.01 µM)
Summed up: as §1

Compound in the assay “5-Fluorouracil + OSI-027”: O=c1[nH]cc(F)c(=O)[nH]1 [5-Fluorouracil] + COc1cccc2cc(-c3nc([C@H]4CC[C@H](C(=O)O)CC4)n4ncnc(N)c34)[nH]c12 [OSI-027] (partner 0.5 µM)
Summed up:
as §1

Compound in assay [3]: O=c1[nH]cc(F)c(=O)[nH]1 [5-Fluorouracil] + Nc1nc2[nH]cc(CCc3ccc(C(=O)N[C@@H](CCC(=O)O)C(=O)O)cc3)c2c(=O)[nH]1 [Pemetrexed] (partner 0.2 µM)
Summed up: as §1

Consider NCI-H1975, for which the relative viability in assay [1] (first compound 0.005 µM) amounted to 0.323; in assay [1] (first compound 0.01581 µM), 0.229; in assay [1] (first compound 0.1581 µM), 0.139; in assay [1] (first compound 0.5 µM), 0.124; in assay [2] (first compound 0.02 µM) it was 0.302; in assay [2] (first compound 0.2 µM), 0.217. Besides, the relative viability came out at 0.397 in assay [2] (first compound 0.6325 µM); 0.237 in assay [2] (first compound 2 µM); 0.793 with 5-Fluorouracil + OSI-027 (first compound 0.02 µM); 0.793 with 5-Fluorouracil + OSI-027 (first compound 0.2 µM); 0.417 with 5-Fluorouracil + OSI-027 (first compound 0.6325 µM); 0.26 in the assay with 5-Fluorouracil + OSI-027 (first compound 2 µM). Besides, the relative viability in assay [3] (first compound 0.02 µM) amounted to 0.309; in assay [3] (first compound 0.2 µM) it was 0.28; in assay [3] (first compound 0.6325 µM), 0.243; in assay [3] (first compound 2 µM), 0.219.
As to NCI-H1993, the relative viability in assay [1] (first compound 0.005 µM) is 0.761; in assay [1] (first compound 0.01581 µM), 0.634; in assay [1] (first compound 0.05 µM) it was 0.605; in assay [1] (first compound 0.1581 µM), 0.439; in assay [1] (first compound 0.5 µM) it was 0.55; in assay [2] (first compound 0.02 µM), 0.768. Moreover, the relative viability in assay [2] (first compound 0.2 µM) came out at 0.682; in assay [2] (first compound 0.6325 µM), 0.664; in assay [2] (first compound 2 µM), 0.595; in the assay with 5-Fluorouracil + OSI-027 (first compound 0.02 µM), 0.565; with 5-Fluorouracil + OSI-027 (first compound 0.2 µM) it was 0.501; in the assay with 5-Fluorouracil + OSI-027 (first compound 0.6325 µM), 0.538. Also, the relative viability worked out at 0.537 with 5-Fluorouracil + OSI-027 (first compound 2 µM); 0.559 in assay [3] (first compound 0.02 µM); 0.49 in assay [3] (first compound 0.2 µM); 0.577 in assay [3] (first compound 0.6325 µM); 0.525 in assay [3] (first compound 2 µM).
Turning to NCI-H2009, the relative viability in assay [1] (first compound 0.005 µM) came out at 0.681; in assay [1] (first compound 0.01581 µM), 0.269; in assay [1] (first compound 0.05 µM), 0.216; in assay [1] (first compound 0.1581 µM), 0.18; in assay [1] (first compound 0.5 µM), 0.116; in assay [2] (first compound 0.02 µM), 1.18. The relative viability in assay [2] (first compound 0.2 µM) was found to be 1.12; in assay [2] (first compound 0.6325 µM), 1.12; in assay [2] (first compound 2 µM) it was 0.645; with 5-Fluorouracil + OSI-027 (first compound 0.02 µM) it was 0.618; with 5-Fluorouracil + OSI-027 (first compound 0.2 µM) it was 0.674; in the assay with 5-Fluorouracil + OSI-027 (first compound 0.6325 µM), 0.478. For the same cell line, the relative viability was 0.379 with 5-Fluorouracil + OSI-027 (first compound 2 µM); 1.15 in assay [3] (first compound 0.02 µM); 0.968 in assay [3] (first compound 0.2 µM); 0.85 in assay [3] (first compound 0.6325 µM); 0.656 in assay [3] (first compound 2 µM).
As for NCI-H2023, the relative viability was determined as 0.419 in assay [1] (first compound 0.005 µM); 0.17 in assay [1] (first compound 0.01581 µM); 0.197 in assay [1] (first compound 0.05 µM); 0.122 in assay [1] (first compound 0.1581 µM); 0.0751 in assay [1] (first compound 0.5 µM); 0.844 in assay [2] (first compound 0.02 µM). For the same cell line, the relative viability in assay [2] (first compound 0.2 µM) amounted to 0.154; in assay [2] (first compound 0.6325 µM) it was 0.106; in assay [2] (first compound 2 µM), 0.0768; in the assay with 5-Fluorouracil + OSI-027 (first compound 0.02 µM), 0.369; with 5-Fluorouracil + OSI-027 (first compound 0.2 µM), 0.176; with 5-Fluorouracil + OSI-027 (first compound 0.6325 µM), 0.103. Further, the relative viability with 5-Fluorouracil + OSI-027 (first compound 2 µM) came to 0.0879; in assay [3] (first compound 0.02 µM), 0.212; in assay [3] (first compound 0.2 µM) it was 0.129; in assay [3] (first compound 0.6325 µM), 0.126; in assay [3] (first compound 2 µM) it was 0.115.
For the cell line NCI-H2085, the relative viability in assay [1] (first compound 0.005 µM) turned out to be 0.745; in assay [1] (first compound 0.01581 µM), 0.502; in assay [1] (first compound 0.05 µM), 0.541; in assay [1] (first compound 0.1581 µM) it was 0.38; in assay [1] (first compound 0.5 µM) it was 0.337; in assay [2] (first compound 0.02 µM), 0.418. Moreover, the relative viability amounted to 0.456 in assay [2] (first compound 0.2 µM); 0.445 in assay [2] (first compound 0.6325 µM); 0.349 in assay [2] (first compound 2 µM); 0.69 with 5-Fluorouracil + OSI-027 (first compound 0.02 µM); 0.676 with 5-Fluorouracil + OSI-027 (first compound 0.2 µM); 0.771 with 5-Fluorouracil + OSI-027 (first compound 0.6325 µM). The relative viability worked out at 0.502 with 5-Fluorouracil + OSI-027 (first compound 2 µM); 0.886 in assay [3] (first compound 0.02 µM); 0.893 in assay [3] (first compound 0.2 µM); 0.857 in assay [3] (first compound 0.6325 µM); 0.599 in assay [3] (first compound 2 µM).
Consider NCI-H2087, for which the relative viability in assay [1] (first compound 0.005 µM) turned out to be 0.71; in assay [1] (first compound 0.01581 µM) it was 0.712; in assay [1] (first compound 0.05 µM) it was 0.356; in assay [1] (first compound 0.1581 µM), 0.296; in assay [1] (first compound 0.5 µM), 0.153; in assay [2] (first compound 0.02 µM), 0.168. For the same cell line, the relative viability was 0.162 in assay [2] (first compound 0.2 µM); 0.16 in assay [2] (first compound 0.6325 µM); 0.142 in assay [2] (first compound 2 µM); 0.555 in the assay with 5-Fluorouracil + OSI-027 (first compound 0.02 µM); 0.563 with 5-Fluorouracil + OSI-027 (first compound 0.2 µM); 0.464 with 5-Fluorouracil + OSI-027 (first compound 0.6325 µM). For the same cell line, the relative viability with 5-Fluorouracil + OSI-027 (first compound 2 µM) was 0.346; in assay [3] (first compound 0.02 µM) it was 0.624; in assay [3] (first compound 0.2 µM) it was 0.593; in assay [3] (first compound 0.6325 µM), 0.609; in assay [3] (first compound 2 µM), 0.588.
On to NCI-H2126, for which the relative viability in assay [1] (first compound 0.005 µM) came out at 0.797; in assay [1] (first compound 0.01581 µM), 0.553; in assay [1] (first compound 0.05 µM), 0.461; in assay [1] (first compound 0.1581 µM) it was 0.376; in assay [1] (first compound 0.5 µM) it was 0.366; in assay [2] (first compound 0.02 µM), 0.788. Moreover, the relative viability in assay [2] (first compound 0.2 µM) came out at 0.371; in assay [2] (first compound 0.6325 µM), 0.302; in assay [2] (first compound 2 µM), 0.292; with 5-Fluorouracil + OSI-027 (first compound 0.02 µM), 0.589; with 5-Fluorouracil + OSI-027 (first compound 0.2 µM), 0.39; in the assay with 5-Fluorouracil + OSI-027 (first compound 0.6325 µM), 0.302. For the same cell line, the relative viability in the assay with 5-Fluorouracil + OSI-027 (first compound 2 µM) amounted to 0.365; in assay [3] (first compound 0.02 µM), 0.647; in assay [3] (first compound 0.2 µM) it was 0.435; in assay [3] (first compound 0.6325 µM), 0.38; in assay [3] (first compound 2 µM) it was 0.304.
For the cell line NCI-H2228, the relative viability in assay [1] (first compound 0.005 µM) is 0.608; in assay [1] (first compound 0.01581 µM), 0.483; in assay [1] (first compound 0.05 µM), 0.141; in assay [1] (first compound 0.1581 µM) it was 0.183; in assay [1] (first compound 0.5 µM), 0.113; in assay [2] (first compound 0.02 µM), 0.158. In addition, the relative viability in assay [2] (first compound 0.2 µM) was determined as 0.156; in assay [2] (first compound 0.6325 µM) it was 0.145; in assay [2] (first compound 2 µM) it was 0.18; in the assay with 5-Fluorouracil + OSI-027 (first compound 0.02 µM), 0.404; with 5-Fluorouracil + OSI-027 (first compound 0.2 µM), 0.55; with 5-Fluorouracil + OSI-027 (first compound 0.6325 µM), 0.332. Also, the relative viability was 0.329 with 5-Fluorouracil + OSI-027 (first compound 2 µM); 0.3 in assay [3] (first compound 0.02 µM); 0.334 in assay [3] (first compound 0.2 µM); 0.39 in assay [3] (first compound 0.6325 µM); 0.367 in assay [3] (first compound 2 µM).
